Test results as given in the supplement of paper PMC10307832.

How the values were obtained:
Assay in all cases: relative viability (nuclei count vs DMSO), 5 days (fraction); higher = more cells survive
Vorinostat = compound: O=C(CCCCCCC(=O)Nc1ccccc1)NO [Vorinostat]
Procedure, shortened: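 Lung cancer cell lines in 1536-well plates were exposed by pinning to five library-drug doses (not always all listed) √10 apart, following an overnight hold at 37 °C. MetaXpress counted Hoechst-stained nuclei from 4× images taken after 5 days without medium change. Viability is the median ratio of treated-well to vehicle-well nuclei across plates. Plates required control CV below 25% and at least one doubling.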

Vorinostat + Dasatinib = compound: O=C(CCCCCCC(=O)Nc1ccccc1)NO [Vorinostat] + Cc1nc(Nc2ncc(C(=O)Nc3c(C)cccc3Cl)s2)cc(N2CCN(CCO)CC2)n1 [Dasatinib] (partner 0.075 µM)
Procedure, shortened: (§1)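 A single step with final 0.05% Triton X-100, 1% formaldehyde and 1 ug/ml Hoechst fixed the cells and stained nuclei 5 days after treatment. Lung cancer cell lines in 1536-well plates had been treated by pin tool the day after seeding with one drug alone or a fixed anchor-drug dose plus five library-drug doses (not always all listed) in √10 steps, and nuclei were counted on 4× images. Relative viability is the ratio of nuclei in treated wells to nuclei in vehicle wells, taken as the median of duplicate plates.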

Vorinostat + Linsitinib = compound: O=C(CCCCCCC(=O)Nc1ccccc1)NO [Vorinostat] + C[C@]1(O)C[C@@H](c2nc(-c3ccc4ccc(-c5ccccc5)nc4c3)c3c(N)nccn32)C1 [Linsitinib] (partner 1 µM)
Procedure, shortened: as §1

Vorinostat + Phenformin = compound: O=C(CCCCCCC(=O)Nc1ccccc1)NO [Vorinostat] + N=C(N)NC(=N)NCCc1ccccc1 [Phenformin] (partner 250 µM)
Procedure, shortened: as §1

Cell Line	relative viability (Vorinostat; 0.253 µM)	relative viability (Vorinostat; 0.8 µM)	relative viability (Vorinostat; 1 µM, anchor plate)	relative viability (Vorinostat; 2.53 µM)	relative viability (Vorinostat; 8 µM)	relative viability (Vorinostat + Dasatinib; first compound 0.253 µM)	relative viability (Vorinostat + Dasatinib; first compound 0.8 µM)	relative viability (Vorinostat + Dasatinib; first compound 2.53 µM)	relative viability (Vorinostat + Dasatinib; first compound 8 µM)	relative viability (Vorinostat + Linsitinib; first compound 0.8 µM)	relative viability (Vorinostat + Linsitinib; first compound 2.53 µM)	relative viability (Vorinostat + Linsitinib; first compound 8 µM)	relative viability (Vorinostat + Phenformin; first compound 0.253 µM)	relative viability (Vorinostat + Phenformin; first compound 0.8 µM)	relative viability (Vorinostat + Phenformin; first compound 2.53 µM)	relative viability (Vorinostat + Phenformin; first compound 8 µM)	relative viability (Vorinostat + Linsitinib; first compound 0.253 µM)
LCLC-97TM1	0.979	1.07	0.711	0.715	0.1	0.914	0.68	0.365	0.226	0.167	0.144	0.115	0.489	0.421	0.253	0.144	–
LCLC-103H	1.08	0.961	0.781	0.812	0.272	0.504	0.533	0.339	0.134	0.999	0.597	0.172	0.322	0.332	0.267	0.151	1.18
LK-2	1.18	0.67	0.309	0.207	0.0969	0.36	0.188	0.114	0.123	0.328	0.143	0.0894	0.778	0.321	0.197	0.126	0.58
LOU-NH91	1.09	0.918	0.94	0.829	0.423	0.661	0.577	0.544	0.361	0.901	0.547	0.338	0.774	0.663	0.628	0.348	1.1
LU99A	1.1	0.809	0.537	0.513	0.209	0.607	0.591	0.242	0.172	0.465	0.27	0.117	0.952	0.609	0.447	0.185	0.429
LXF-289	1.1	1.01	0.791	0.624	0.195	0.316	0.347	0.226	0.0398	0.994	0.391	0.108	0.595	0.558	0.306	0.0606	1.03
NCI-H23	1.14	0.985	0.653	0.541	0.136	0.922	0.671	0.41	0.0961	0.711	0.21	0.124	0.844	0.881	0.674	0.101	0.866
NCI-H322M	1.17	0.87	0.915	0.6	0.385	0.286	0.268	0.255	0.264	1.01	0.51	0.275	0.94	0.761	0.452	0.284	1.04
NCI-H358	1.33	1.05	0.697	0.255	0.118	0.182	0.227	0.0991	0.0768	0.83	0.219	0.156	0.5	0.47	0.115	0.082	0.969
NCI-H441	1.13	1.05	0.773	0.418	0.18	0.846	0.557	0.285	0.138	0.619	0.255	0.117	1.1	0.863	0.317	0.169	0.501
NCI-H460	1.09	0.955	0.715	0.144	0.0458	0.577	0.423	0.134	0.0239	0.544	0.0315	0.0069	0.611	0.4	0.0276	0.016	0.902
NCI-H520	1.35	0.955	0.745	0.503	0.175	0.219	0.206	0.179	0.17	0.841	0.293	0.12	0.717	0.482	0.374	0.164	1.15
NCI-H596	1.03	0.799	0.621	0.797	0.311	0.634	0.448	0.385	0.202	1.04	0.677	0.335	0.838	0.587	0.474	0.272	1.02
NCI-H647	1.16	0.731	0.539	0.199	0.0541	0.18	0.233	0.0551	0.0337	0.959	0.294	0.0525	0.594	0.208	0.0803	0.0343	1.24
NCI-H650	0.939	0.792	0.457	0.481	0.158	0.475	0.357	0.196	0.126	0.52	0.205	0.152	0.483	0.375	0.256	0.14	1.13
NCI-H661	1.11	0.974	0.8	0.548	0.351	1.11	0.791	0.247	0.223	0.752	0.298	0.184	0.38	0.3	0.213	0.268	0.759
NCI-H727	1.11	0.813	1.19	0.514	0.31	0.486	0.423	0.262	0.206	0.351	0.15	0.289	0.964	0.395	0.478	0.255	0.236
NCI-H1703	1.41	1.39	–	1.03	0.244	–	–	–	–	0.846	0.953	0.206	–	–	–	–	1.14
NCI-H2170	1.08	0.969	0.847	0.539	0.158	0.68	0.459	0.355	0.14	–	–	–	0.481	0.394	0.384	0.164	–
SW 900	0.653	0.644	0.576	0.391	0.128	0.679	0.739	0.249	0.118	–	–	–	0.73	0.391	0.322	0.091	–
